Assay results: US6093730A, “Substituted isoquinoline-3-carboxamides, their preparation and their use as pharmaceuticals” (Hoechst Marion Roussel Deutschland GmbH, priority 1997, dated 2000)
Values belong to the compound of their own block, whether it stands above or below them.

Assays:
hydroxyproline formation = assay: Carbon tetrachloride-induced liver fibrosis model in rats, inhibition of hydroxyproline formation; type: in vivo, rat; conditions: two weeks with CCl4
Method: The antifibrotic action was determined in the model of carbon tetrachloride-induced liver fibrosis. For this, rats were treated twice weekly with CCl4 (1 ml/kg) dissolved in olive oil. The test substance was administered daily, if appropriate even twice daily, orally or intraperitoneally dissolved in a suitable compatible solvent. The extent of the liver fibrosis was determined histologically and the proportion of collagen in the liver was analyzed by hydroxyproline determination as described in Kivirikko et al., ANAL. BIOCHEM. […] The fibrogenesis activity was determined by radioimmunological determination of collagen fragments and procollagen peptides in the serum.
The measurement of the inhibition of hydroxyproline formation by the test substances was based on this level.
Here the experimental animals were treated for two weeks only with carbon tetrachloride, then for the next two weeks with carbon tetrachloride and test substance. The test substances were administered intraperitoneally twice per day in the total amount indicated below in Table II,

prolyl-4-hydroxylase [1] = molecular target: T1, prolyl-4-hydroxylase (Gallus gallus, UniProt P16924); assay: Combined liver perfusion/enzyme assay (prolyl-4-hydroxylase inhibition after rat liver perfusion); type: biochemical, chicken; set-up: The enzyme is purified from 14 day-old chicken embryos; from tissue; host or cells: 14-day-old chicken embryos; conditions: after 120 min rat liver perfusion; 100 or 50 μg/ml added at t=0 and 60 min
T1 sequence (P16924 1-516): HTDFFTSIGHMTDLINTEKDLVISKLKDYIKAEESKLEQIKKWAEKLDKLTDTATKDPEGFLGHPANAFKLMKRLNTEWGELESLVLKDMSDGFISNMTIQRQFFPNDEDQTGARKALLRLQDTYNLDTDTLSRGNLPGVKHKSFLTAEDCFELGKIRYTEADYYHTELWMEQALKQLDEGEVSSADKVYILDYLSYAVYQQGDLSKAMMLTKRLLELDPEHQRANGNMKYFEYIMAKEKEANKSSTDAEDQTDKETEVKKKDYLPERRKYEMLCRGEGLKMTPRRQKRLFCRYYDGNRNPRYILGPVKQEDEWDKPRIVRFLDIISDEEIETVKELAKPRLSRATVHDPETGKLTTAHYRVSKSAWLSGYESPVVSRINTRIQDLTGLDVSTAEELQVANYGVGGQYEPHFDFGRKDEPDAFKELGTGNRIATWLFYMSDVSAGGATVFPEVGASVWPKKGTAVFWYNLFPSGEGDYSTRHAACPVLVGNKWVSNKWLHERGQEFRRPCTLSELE
T1 sequence (P09102 23-515 partner): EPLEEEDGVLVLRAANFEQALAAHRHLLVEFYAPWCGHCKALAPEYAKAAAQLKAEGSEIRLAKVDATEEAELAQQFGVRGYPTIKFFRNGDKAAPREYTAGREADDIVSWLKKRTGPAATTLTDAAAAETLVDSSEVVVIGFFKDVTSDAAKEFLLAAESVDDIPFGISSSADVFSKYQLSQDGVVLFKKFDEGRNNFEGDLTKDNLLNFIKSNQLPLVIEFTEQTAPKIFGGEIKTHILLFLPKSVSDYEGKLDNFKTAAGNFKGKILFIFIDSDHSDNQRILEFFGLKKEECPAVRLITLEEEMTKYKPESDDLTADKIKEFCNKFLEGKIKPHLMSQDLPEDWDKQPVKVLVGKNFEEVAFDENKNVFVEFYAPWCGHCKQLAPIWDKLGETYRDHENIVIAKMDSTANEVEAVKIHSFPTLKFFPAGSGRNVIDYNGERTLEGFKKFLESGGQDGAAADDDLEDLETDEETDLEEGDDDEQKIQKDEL
Method: In order to investigate the inhibitory action of such active proinhibitors, the compounds were employed in perfusion experiments on isolated rat liver. The inhibitory action was then measured in a prolyl-4-hydroxylase assay.
Unfasted male Wistar rats of 200-300 g body weight (Hoe:WISKf(SPF71)) were anesthetized with pentobarbital (5 mg/100 g of body weight i.p.). After cannulation of the portal vein, the liver was washed with 100 ml of heparinized saline solution (5 lU/ml) of 37° C. for 3 min. The fluid left the liver by the incised vena cava. The organ was then removed, attached to the perfusion apparatus and perfused at a flow rate of 30 ml/min with 100 ml of medium for 2 hours under recirculating conditions. Krebs-Ringer buffer containing bovine erythrocytes was used for the perfusion. For this, bovine blood was mixed 1:1 with a citrate solution in the slaughterhouse immediately after removal. This mixture was centrifuged at 6000 rpm for 10 min and the supernatant was removed. This process was repeated once using saline solution and twice using Krebs-Ringer buffer. The final perfusion solution contained 33.3% of the erythrocyte sediment and 66.7% of Krebs-Ringer buffer (Schimassek, H. BIOCHEM. Z. 336 (1963) 460-467).
Perfusion apparatus (Ryoo and Tarver, H.P.S.E.B.M. 128 (1968) 760-72): The central element of the apparatus is a thermostated cylinder having a removable plate for the storage of the organ. The outlet tube is extended and its lower end is attached to a peristaltic pump. Before the return of the perfusate into the organ bath, it is passed through a glass spiral, which serves as a heat exchanger, which keeps the temperature constant at 37° C. At the bottom of the cylinder, the perfusate is aerated with 70 ml of a CO2 /O2 mixture (5:95%) per minute. In order to avoid foam formation, 14 μl of 0.1% strength Genapol® PF-10 solution are added per ml of perfusion solution. Samples for analysis are removed from the perfusate at a position before entry into the perfused organ.
The test substances were added to the perfusion solution at time t=0 and 60 min in concentrations of 100 or 50 μg/ml in each case. After a perfusion time of 120 min, a sample of the perfusion solution was removed for analysis.
The inhibitory activity of the metabolites which are formed in the liver during the two-hour perfusion was determined in an in vitro prolyl-4-hydroxylase assay. The enzyme is purified from 14 day-old chicken embryos as described in the literature (Tuderman et al., EUR.J.BIOCHEM. 52 (1975) 9-16; Kedersha and Berg, COLLAGEN REL. RES. 1 (1981) 345-53). The enzyme test is carried out according to Kaule and Gunzler, ANAL. BIOCHEM. 184 (1990) 291-97). Dose-response curves were obtained by means of dilution series, starting from the undiluted perfusion solution.

prolyl-4-hydroxylase [2] = molecular target: T1, prolyl-4-hydroxylase; assay: Inhibition of prolyl-4-hydroxylase (Table I); type: biochemical
Method: The inhibition of this enzyme was determined as described by Kaule and Gunzler, ANAL. BIOCHEM.

liver steatosis = assay: Liver steatosis on treatment of male rats; type: in vivo, rat; conditions: up to six weeks, male rats (Fischer F344, Sprague Dawley, Wistar), 2×25 mg/kg i.p/day, in water/NaHCO3
prolyl hydroxylase [3] = conditions: Majamaa et al.; cited from earlier work
prolyl hydroxylase [4] = conditions: Tschank et al.; cited from earlier work
collagen biosynthesis = conditions: Franklin et al.; cited from earlier work
[5] = 40 mg/kg (total), intraperitoneal twice per day
[6] = 20 mg/kg (total), intraperitoneal twice per day

Compound: O=C(O)CNC(=O)c1nc(Cl)c2ccccc2c1O [Example 9, N-((1-Chloro-4-hydroxyisoquinolin-3-yl)carbonyl)glycine]
- IC50 (prolyl-4-hydroxylase [2]): 2300 nM
- Change in hydroxyproline formation (hydroxyproline formation; [6]): -67%
- Change in hydroxyproline formation (hydroxyproline formation; [5]): -65%
- Change in hydroxyproline formation (hydroxyproline formation; 100 mg/kg (total), intraperitoneal twice per day): -58%
- Change in hydroxyproline formation (hydroxyproline formation; 100 mg/kg, oral administration): -71%
- liver steatosis (liver steatosis): It was not possible to demonstrate any liver steatosis

Compound: CC(C)Oc1ccc2c(O)c(C(=O)NCC(=O)O)nc(Cl)c2c1 [Example 1, N-((1-Chloro-4-hydroxy-7-(2-propyloxy)isoquinolin-3-yl)carbonyl)glycine]
- IC50 (prolyl-4-hydroxylase [2]; Table I, read-out: IC50): 120 nM
- Change in hydroxyproline formation (hydroxyproline formation; [6]): -55%

Compound: COc1cccc2c(O)c(C(=O)NCC(=O)O)ncc12 [Example 12, N-((4-Hydroxy-8-methoxyisoquinolin-3-yl)carbonyl)glycine]
- IC50 (prolyl-4-hydroxylase [2]; Table I, read-out: IC50): 650 nM

Compound: O=C(O)CNC(=O)c1nc(Cl)c2cc(Cl)c(Cl)cc2c1O [Example 10, N-((1,6,7-Trichloro-4-hydroxyisoquinolin-3-yl)carbonyl)glycine]
- IC50 (prolyl-4-hydroxylase [2]; Table I, read-out: IC50): 3600 nM

Compound: O=C(O)CNC(=O)c1ncc2c(Cl)cccc2c1O [Example 11, N-((8-Chloro-4-hydroxyisoquinolin-3-yl)carbonyl)glycine]
- IC50 (prolyl-4-hydroxylase [2]; Table I, read-out: IC50): 660 nM

Compound: CC(C)Oc1ccc2c(Cl)nc(C(=O)NCC(=O)O)c(O)c2c1 [Example 2, N-((1-Chloro-4-hydroxy-6-(2-propyloxy)isoquinolin-3-yl)carbonyl)glycine]
- IC50 (prolyl-4-hydroxylase [2]; Table I, read-out: IC50): 1900 nM

Compound: COc1ccc2c(Cl)nc(C(=O)NCC(=O)O)c(O)c2c1 [Example 4, N-((1-Chloro-4-hydroxy-6-methoxyisoquinolin-3-yl)carbonyl)glycine]
- IC50 (prolyl-4-hydroxylase [2]; Table I, read-out: IC50): 570 nM

Compound: CC(C)Oc1ccc2c(O)c(C(=O)NCC(=O)O)ncc2c1 [Example 15, N-((4-Hydroxy-7-(2-propyloxy)isoquinolin-3-yl)carbonyl)glycine]
- IC50 (prolyl-4-hydroxylase [2]; Table I, read-out: IC50): 660 nM

Compound: O=C(O)c1ccnc(C(=O)O)c1 [pyridine-2,4-dicarboxylic acid]
- inhibition of prolyl hydroxylase (prolyl hydroxylase [3]): effectively inhibited
- activity as inhibitors in cell culture (prolyl hydroxylase [4]): only active as inhibitors in very high concentrations

Compound: O=C(O)c1ccc(C(=O)O)nc1 [pyridine-2,5-dicarboxylic acid]
- inhibition of prolyl hydroxylase (prolyl hydroxylase [3]): effectively inhibited
- activity as inhibitors in cell culture (prolyl hydroxylase [4]): only active as inhibitors in very high concentrations

Compound: O=C(O)CNC(=O)c1nc(Cl)c2ccc(OCc3ccccc3)cc2c1O [Example 7, N-((6-Benzyloxy-1-chloro-4-hydroxyisoquinolin-3-yl)carbonyl)glycine]
- IC50 (prolyl-4-hydroxylase [2]; Table I, read-out: IC50): 1340 nM

Compound: O=C(O)CNC(=O)c1ncc2ccccc2c1O [N-((4-Hydroxyisoquinolin-3-yl)carbonyl)glycine]
- in-vivo activity on collagen biosynthesis (collagen biosynthesis): poor

Compound: O=C(O)CNC(=O)c1nc(Cl)c2cc(OCc3ccccc3)ccc2c1O [Example 8, N-((7-Benzyloxy-1-chloro-4-hydroxyisoquinolin-3-yl)carbonyl)glycine]
- IC50 (prolyl-4-hydroxylase [2]; Table I, read-out: IC50): 620 nM

Further lines, with some results ahead:

- IC50 (prolyl-4-hydroxylase [1]): 10500 nM
Compound: CC(C)Oc1ccc2c(O)c(C(=O)NCCO)nc(Cl)c2c1 [Example 19, 1-Chloro-4-hydroxy-7-(2-propyloxy)isoquinoline-3-carboxylic acid N-(2-hydroxyethyl)amide]
- Change in hydroxyproline formation (hydroxyproline formation; [5]): -39%

- IC50 (prolyl-4-hydroxylase [2]; Table I, read-out: IC50): 2020 nM
Compound: CCCCOc1ccc2c(Cl)nc(C(=O)NCC(=O)O)c(O)c2c1 [Example 6, N-(-6-(1-Butyloxy-1-chloro-4-hydroxyisoquinolin-3-yl)carbonyl)glycine]

- IC50 (prolyl-4-hydroxylase [2]; Table I, read-out: IC50): 9300 nM
Compound: CCCCOc1ccc2c(O)c(C(=O)NCC(=O)O)ncc2c1 [Example 13, N-((7-(1-Butyloxy)-4-hydroxyisoquinolin-3-yl)carbonyl)glycine]

- IC50 (prolyl-4-hydroxylase [1]): 7500 nM
Compound: COc1ccc2c(O)c(C(=O)NCCO)nc(Cl)c2c1 [Example 21, 1-Chloro-4-hydroxy-7-methoxyisoquinoline-3-carboxylic acid N-(2-hydroxyethyl)amide]

- IC50 (prolyl-4-hydroxylase [1]): 6400 nM
Compound: COc1ccc2c(Cl)nc(C(=O)NCCO)c(O)c2c1 [Example 22, 1-Chloro-4-hydroxy-6-methoxyisoquinoline-3-carboxylic acid N-(2-hydroxyethyl)amide]

- IC50 (prolyl-4-hydroxylase [2]; Table I, read-out: IC50): 790 nM
Compound: COc1ccc2c(O)c(C(=O)NCC(=O)O)nc(Cl)c2c1 [Example 3, N-((1-Chloro-4-hydroxy-7-methoxyisoquinolin-3-yl)carbonyl)glycine]

- IC50 (prolyl-4-hydroxylase [2]; Table I, read-out: IC50): 700 nM
Compound: CCCCOc1ccc2c(O)c(C(=O)NCC(=O)O)nc(Cl)c2c1 [Example 5, N-((7-(1-Butyloxy)-1-chloro-4-hydroxyisoquinolin-3-yl)carbonyl)glycine]

- IC50 (prolyl-4-hydroxylase [1]): 21700 nM
Compound: CCCCOc1ccc2c(O)c(C(=O)NCCO)nc(Cl)c2c1 [Example 23, 7-(1-Butyloxy)-1-chloro-4-hydroxyisoquinoline-3-carboxylic acid N-(2-hydroxyethyl)amide]

- IC50 (prolyl-4-hydroxylase [1]): 16600 nM
Compound: CC(C)Oc1ccc2c(Cl)nc(C(=O)NCCO)c(O)c2c1 [Example 20, 1-Chloro-4-hydroxy-6-(2-propyloxy)isoquinoline-3-carboxylic acid N-(2-hydroxyethyl)amide]

- IC50 (prolyl-4-hydroxylase [2]; Table I, read-out: IC50): 350 nM
Compound: CCCCOc1ccc2cnc(C(=O)NCC(=O)O)c(O)c2c1 [Example 14, N-((6-(1-Butyloxy)-4-hydroxyisoquinolin-3-yl)carbonyl)glycine]
